Data from patent US20250230193A1, “CYCLIC COMPOUND HAVING SELECTIVE KRAS INHIBITORY EFFECT ON HRAS AND NRAS” (CHUGAI SEIYAKU KABUSHIKI KAISHA, priority 2022, published 2025).

Legend:
[1] = target: GDP-bound NRAS wild-type protein (Homo sapiens, UniProt P01111); assay: Binding to NRAS by surface plasmon resonance (SPR), Single Cycle Kinetics; conditions: for NRAS/KRAS (ratio of KD value for GDP-bound NRAS wild-type protein to KD value for KRAS): KD ratio class; for NRAS/KRAS (ratio of KD value with respect to NRAS to KD value with respect to KRAS): GDP-bound NRAS wild-type vs GDP-bound KRAS wild-type
[2] = target: GDP-bound HRAS wild-type protein (Homo sapiens, UniProt P01112); assay: Binding to HRAS by surface plasmon resonance (SPR), Single Cycle Kinetics; conditions: for HRAS/KRAS (ratio of KD value for GDP-bound HRAS wild-type protein to KD value for KRAS): KD ratio class; for HRAS/KRAS (ratio of KD value with respect to HRAS to KD value with respect to KRAS): GDP-bound HRAS wild-type vs GDP-bound KRAS wild-type
[3] = SPR, GDP-bound wild-type proteins

Chain of GDP-bound HRAS wild-type protein (P01112 whole entry): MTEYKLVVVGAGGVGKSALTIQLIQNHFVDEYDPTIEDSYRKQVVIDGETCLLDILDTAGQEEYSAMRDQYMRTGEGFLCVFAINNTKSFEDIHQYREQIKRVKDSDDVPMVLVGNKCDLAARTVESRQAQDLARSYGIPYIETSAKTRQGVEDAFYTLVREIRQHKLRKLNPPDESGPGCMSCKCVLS
Chain of GDP-bound NRAS wild-type protein (P01111 whole entry): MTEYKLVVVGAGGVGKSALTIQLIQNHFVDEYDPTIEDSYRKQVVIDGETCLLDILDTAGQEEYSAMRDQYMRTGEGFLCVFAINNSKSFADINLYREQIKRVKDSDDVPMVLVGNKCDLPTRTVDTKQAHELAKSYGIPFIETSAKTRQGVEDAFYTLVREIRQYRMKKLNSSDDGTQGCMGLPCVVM

In the case of `CCC[C@H]1C(=O)N[C@@H]([C@@H](C)CC)C(=O)N(C)CC(=O)N(C)[C@H]2C/C=C\CCN(C2=O)[C@@H](Cc2ccc(C)cc2)C(=O)N(C)CC(=O)N[C@@H](CCc2ccc3ccn(C)c3c2)C(=O)N2C[C@H](OCC)C[C@H]2C(=O)NC2(CC(C)(C)C2)C(=O)N(C)[C@@H](C(CC)CC)C(=O)N(C)[C@H](C(=O)N(C)C)CC(=O)N1C` [PP2914], the “NRAS/KRAS (ratio of KD value with respect to GDP-bound NRAS wild-type protein to KD value with respect to KRAS)” value ([1]; class symbols) is reported as “AA (a compound having 20 or more is denoted as AA)” and the “HRAS/KRAS (ratio of KD value with respect to GDP-bound HRAS wild-type protein to KD value with respect to KRAS)” value ([2]; class symbols) is reported as “A (a compound having 10 or more and less than 20 is denoted as A)”.
In the case of `CCCN(C)C(=O)[C@@H]1CC(=O)N(C)[C@@H](CC(C)C)C(=O)N[C@@H]([C@@H](C)CC)C(=O)N(C)CC(=O)N(C)[C@H]2C/C=C\CCN(C2=O)[C@@H](Cc2ccc(C(F)(F)F)cc2)C(=O)N(C)CC(=O)N[C@@H](CCc2cc(F)c(C(F)(F)F)c(F)c2)C(=O)N2C[C@H](OCC)C[C@H]2C(=O)NC2(CCC2)C(=O)N(C)[C@@H](C2CCCC2)C(=O)N1C` [PP1387], the “NRAS/KRAS (ratio of KD value for GDP-bound NRAS wild-type protein to KD value for KRAS)” value ([1]; SPR) is reported as “A (a compound having 10 or more and less than 20 is denoted as A)” and the “HRAS/KRAS (ratio of KD value for GDP-bound HRAS wild-type protein to KD value for KRAS)” value ([2]; SPR) is reported as “B (a compound having 3 or more and less than 10 is denoted as B)”.
`CCCO[C@@H]1C[C@H]2C(=O)NC3(CC(C)(C)C3)C(=O)N(C)[C@@H](C3CCCC3)C(=O)N(C)[C@H](C(=O)N(C)CC)CC(=O)N(C)[C@H]3CCCc4ccc(cc4)C[C@@H](C(=O)N(C)CC(=O)N[C@@H](CCc4ccc(Cl)c(Cl)c4)C(=O)N2C1)N1CC/C=C\C[C@@H](C1=O)N(C)C(=O)CN(C)C(=O)[C@H]([C@@H](C)CC)NC3=O` [PP3089] was tested, and the “NRAS/KRAS (ratio of KD value with respect to GDP-bound NRAS wild-type protein to KD value with respect to KRAS)” value [1, 3] was “B (a compound having 3 or more and less than 10 is denoted as B)” and the “HRAS/KRAS (ratio of KD value with respect to GDP-bound HRAS wild-type protein to KD value with respect to KRAS)” value [2, 3] was “B (a compound having 3 or more and less than 10 is denoted as B)”.
`CC[C@H](C)[C@@H]1NC(=O)[C@H](COC)N(C)C(=O)C[C@@H](C(=O)N2CCOCC2)N(C)C(=O)[C@H](C2CCCC2)N(C)C(=O)C2(CCCC2)NC(=O)[C@@H]2CC(F)(F)CN2C(=O)[C@H](CCc2cc(F)c(C(F)(F)F)c(F)c2)NC(=O)CN(C)C(=O)[C@H](Cc2ccc(C(F)(F)F)cc2)N2CCCCC[C@@H](C2=O)N(C)C(=O)CN(C)C1=O` [PP0846] was tested, and the “NRAS/KRAS (ratio of KD value with respect to NRAS to KD value with respect to KRAS)” value ([1]; KD ratio, SPR) was “B (a compound having 3 or more and less than 10 is denoted as B)” and the “HRAS/KRAS (ratio of KD value with respect to HRAS to KD value with respect to KRAS)” value ([2]; KD ratio, SPR) was “B (a compound having 3 or more and less than 10 is denoted as B)”.
`CCOC[C@H]1C(=O)N[C@@H]([C@@H](C)CC)C(=O)N(C)CC(=O)N(C)[C@H]2C/C=C\CCN(C2=O)[C@@H](Cc2ccc(C)cc2)C(=O)N(C)CC(=O)N[C@@H](CCc2cc(F)c(C(F)(F)F)c(F)c2)C(=O)N2C[C@@H](C)C[C@H]2C(=O)NC2(CC(C)(C)C2)C(=O)N(C)[C@@H](C2CCCC2)C(=O)N(C)[C@H](C(=O)N(C)CC)CC(=O)N1C` [PP2457] was tested, and the “NRAS/KRAS (ratio of KD value with respect to NRAS to KD value with respect to KRAS)” value ([1]; SPR) was “A (a compound having 10 or more and less than 20 is denoted as A)” and the “HRAS/KRAS (ratio of KD value with respect to HRAS to KD value with respect to KRAS)” value ([2]; SPR) was “A (a compound having 10 or more and less than 20 is denoted as A)”.
In the case of `CCO[C@@H]1C[C@H]2C(=O)NC3(CCC3)C(=O)N(C)[C@@H](C3CCCC3)C(=O)N(C)[C@H](C(=O)N(C)CCOC)CC(=O)N(C)[C@@H](CC3CC3)C(=O)N[C@@H]([C@@H](C)CC)C(=O)N(C)CC(=O)N(C)[C@H]3C/C=C\CCN(C3=O)[C@@H](Cc3ccc(C(F)(F)F)cc3)C(=O)N(C)CC(=O)N[C@@H](CCc3ccc(Cl)c(Cl)c3)C(=O)N2C1` [PP1329], the “NRAS/KRAS (ratio of KD value for GDP-bound NRAS wild-type protein to KD value for KRAS)” value ([1]; SPR) is reported as “AA (a compound having 20 or more is denoted as AA)” and the “HRAS/KRAS (ratio of KD value for GDP-bound HRAS wild-type protein to KD value for KRAS)” value ([2]; SPR) is reported as “A (a compound having 10 or more and less than 20 is denoted as A)”.
`CC[C@H](C)[C@@H]1NC(=O)[C@H](CC)N(C)C(=O)C[C@@H](C(=O)N(C)C)N(C)C(=O)[C@H](C2CCCC2)N(C)C(=O)C2(CCC2)NC(=O)[C@@H]2CC(F)(F)CN2C(=O)[C@H](CCc2cc(F)c(C(F)(F)F)c(F)c2)NC(=O)CN(C)C(=O)[C@H](Cc2ccc(C(F)(F)F)cc2)N2CC/C=C\C[C@@H](C2=O)N(C)C(=O)CN(C)C1=O` [PP1129] was tested, and the “NRAS/KRAS (ratio of KD value with respect to NRAS to KD value with respect to KRAS)” value ([1]; KD ratio, SPR) was “A (a compound having 10 or more and less than 20 is denoted as A)” and the “HRAS/KRAS (ratio of KD value with respect to HRAS to KD value with respect to KRAS)” value ([2]; KD ratio, SPR) was “B (a compound having 3 or more and less than 10 is denoted as B)”.
For `CCC[C@H]1C(=O)N[C@@H]([C@@H](C)CC)C(=O)N2CCC[C@H]2C(=O)N(C)[C@H]2C/C=C\CCN(C2=O)[C@@H](Cc2ccc(C(F)F)cc2)C(=O)N(C)CC(=O)N[C@@H](CCc2ccc(Cl)c(Cl)c2)C(=O)N2C[C@H](OC(C)C)C[C@H]2C(=O)NC2(CC(C)(C)C2)C(=O)N(C)[C@@H](C(CC)CC)C(=O)N(C)[C@H](C(=O)N(C)C)CC(=O)N1C` [PP2640], the “NRAS/KRAS (ratio of KD value with respect to GDP-bound NRAS wild-type protein to KD value with respect to KRAS)” value ([1]; class symbols) was “AA (a compound having 20 or more is denoted as AA)” and the “HRAS/KRAS (ratio of KD value with respect to GDP-bound HRAS wild-type protein to KD value with respect to KRAS)” value ([2]; class symbols) was “A (a compound having 10 or more and less than 20 is denoted as A)”.
